In PubChem BioAssay (NCI):
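GI50 is the concentration that inhibits growth by half. TGI: concentration producing complete growth inhibition.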

Columns and labels:
Assay in all cases: NCI tumour cell line growth inhibition, 384-well format
MCF7 breast = tested on: MCF7 breast
COLO 205 colon = tested on: COLO 205 colon
SK-MEL-2 melanoma = tested on: SK-MEL-2 melanoma
SNB-75 CNS = tested on: SNB-75 CNS
A498 renal = tested on: A498 renal
OVCAR-4 ovarian = tested on: OVCAR-4 ovarian
HT29 colon = tested on: HT29 colon
SW-620 colon = tested on: SW-620 colon
T-47D breast = tested on: T-47D breast
ACHN renal = tested on: ACHN renal
HL-60(TB) leukemia = tested on: HL-60(TB) leukemia
OVCAR-8 ovarian = tested on: OVCAR-8 ovarian
786-0 renal = tested on: 786-0 renal
NCI-H226 lung = tested on: NCI-H226 lung
UACC-257 melanoma = tested on: UACC-257 melanoma
NCI-H460 NSCLC = tested on: NCI-H460 NSCLC
A549 NSCLC = tested on: A549 NSCLC
UO-31 renal = tested on: UO-31 renal
NCI-H23 lung = tested on: NCI-H23 lung
MDA-MB-231 breast = tested on: MDA-MB-231 breast
BT-549 breast = tested on: BT-549 breast
LOX IMVI melanoma = tested on: LOX IMVI melanoma
U251 glioblastoma = tested on: U251 glioblastoma
DU-145 prostate = tested on: DU-145 prostate
MDA-MB-435 melanoma = tested on: MDA-MB-435 melanoma
MALME-3M melanoma = tested on: MALME-3M melanoma
PC-3 prostate = tested on: PC-3 prostate
NCI-H322M lung = tested on: NCI-H322M lung
RPMI-8226 leukemia = tested on: RPMI-8226 leukemia
EKVX NSCLC = tested on: EKVX NSCLC
NCI-H522 lung = tested on: NCI-H522 lung
KM12 colon = tested on: KM12 colon
MDA-MB-468 breast = tested on: MDA-MB-468 breast
SK-MEL-28 melanoma = tested on: SK-MEL-28 melanoma
UACC-62 melanoma = tested on: UACC-62 melanoma
SF-539 CNS = tested on: SF-539 CNS
MOLT-4 leukemia = tested on: MOLT-4 leukemia
NCI/ADR-RES ovarian = tested on: NCI/ADR-RES ovarian
HCT-15 colon = tested on: HCT-15 colon
CCRF-CEM leukemia = tested on: CCRF-CEM leukemia
SR leukemia = tested on: SR leukemia
IGROV1 ovarian = tested on: IGROV1 ovarian
HOP-62 NSCLC = tested on: HOP-62 NSCLC
TK-10 renal = tested on: TK-10 renal
SK-OV-3 ovarian = tested on: SK-OV-3 ovarian
SNB-19 CNS = tested on: SNB-19 CNS
SF-295 CNS = tested on: SF-295 CNS

CC(C)(O)c1cc(Nc2cc(Oc3cn(C4CC4)nc3C3CCOCC3)ccn2)ccn1
GI50 (MCF7 breast): 29.9 µM | TGI (MCF7 breast): > 100 µM | GI50 (COLO 205 colon): 63.2 µM | TGI (COLO 205 colon): > 100 µM | GI50 (SK-MEL-2 melanoma): > 100 µM | TGI (SK-MEL-2 melanoma): > 100 µM | GI50 (SNB-75 CNS): > 91.6 µM | TGI (SNB-75 CNS): > 100 µM | GI50 (A498 renal): 66.8 µM | TGI (A498 renal): > 100 µM | GI50 (OVCAR-4 ovarian): > 100 µM | TGI (OVCAR-4 ovarian): > 100 µM | GI50 (HT29 colon): 54.1 µM | TGI (HT29 colon): > 100 µM | GI50 (SW-620 colon): > 91.7 µM | TGI (SW-620 colon): > 100 µM | GI50 (T-47D breast): 32.6 µM | TGI (T-47D breast): > 100 µM | GI50 (ACHN renal): > 100 µM | TGI (ACHN renal): > 100 µM | GI50 (HL-60(TB) leukemia): 15.5 µM | TGI (HL-60(TB) leukemia): 29.1 µM | GI50 (OVCAR-8 ovarian): > 100 µM | TGI (OVCAR-8 ovarian): > 100 µM | GI50 (786-0 renal): > 72.6 µM | TGI (786-0 renal): > 100 µM | GI50 (NCI-H226 lung): > 93.3 µM | TGI (NCI-H226 lung): > 100 µM | GI50 (UACC-257 melanoma): 45 µM | TGI (UACC-257 melanoma): > 100 µM | GI50 (NCI-H460 NSCLC): 38.8 µM | TGI (NCI-H460 NSCLC): > 100 µM | GI50 (A549 NSCLC): 89.6 µM | TGI (A549 NSCLC): > 100 µM | GI50 (UO-31 renal): > 100 µM | TGI (UO-31 renal): > 100 µM | GI50 (NCI-H23 lung): 23.1 µM | TGI (NCI-H23 lung): > 100 µM | GI50 (MDA-MB-231 breast): > 89 µM | TGI (MDA-MB-231 breast): > 100 µM | GI50 (BT-549 breast): 38.7 µM | TGI (BT-549 breast): > 100 µM | GI50 (LOX IMVI melanoma): 24.9 µM | TGI (LOX IMVI melanoma): 84.9 µM | GI50 (U251 glioblastoma): > 100 µM | TGI (U251 glioblastoma): > 100 µM | GI50 (DU-145 prostate): > 100 µM | TGI (DU-145 prostate): > 100 µM | GI50 (MDA-MB-435 melanoma): > 100 µM | TGI (MDA-MB-435 melanoma): > 100 µM | GI50 (MALME-3M melanoma): > 77.1 µM | TGI (MALME-3M melanoma): > 100 µM | GI50 (PC-3 prostate): 76.1 µM | TGI (PC-3 prostate): > 100 µM | GI50 (NCI-H322M lung): > 100 µM | TGI (NCI-H322M lung): > 100 µM | GI50 (RPMI-8226 leukemia): 45.5 µM | TGI (RPMI-8226 leukemia): > 91 µM | GI50 (EKVX NSCLC): 51.6 µM | TGI (EKVX NSCLC): > 100 µM | GI50 (NCI-H522 lung): > 68.6 µM | TGI (NCI-H522 lung): > 100 µM | GI50 (KM12 colon): 97.1 µM | TGI (KM12 colon): > 100 µM | GI50 (MDA-MB-468 breast): 33.8 µM | TGI (MDA-MB-468 breast): > 83.5 µM | GI50 (SK-MEL-28 melanoma): > 80.5 µM | TGI (SK-MEL-28 melanoma): > 100 µM | GI50 (UACC-62 melanoma): 52.1 µM | TGI (UACC-62 melanoma): > 100 µM | GI50 (SF-539 CNS): > 100 µM | TGI (SF-539 CNS): > 100 µM | GI50 (MOLT-4 leukemia): 42.7 µM | TGI (MOLT-4 leukemia): > 100 µM | GI50 (NCI/ADR-RES ovarian): > 100 µM | TGI (NCI/ADR-RES ovarian): > 100 µM | GI50 (HCT-15 colon): > 100 µM | TGI (HCT-15 colon): > 100 µM | GI50 (CCRF-CEM leukemia): 46.7 µM | TGI (CCRF-CEM leukemia): > 100 µM | GI50 (SR leukemia): 24.8 µM | TGI (SR leukemia): > 75.9 µM | GI50 (IGROV1 ovarian): > 100 µM | TGI (IGROV1 ovarian): > 100 µM | GI50 (HOP-62 NSCLC): > 100 µM | TGI (HOP-62 NSCLC): > 100 µM | GI50 (TK-10 renal): 67.2 µM | TGI (TK-10 renal): > 100 µM | GI50 (SK-OV-3 ovarian): 85.1 µM | TGI (SK-OV-3 ovarian): > 100 µM | GI50 (SNB-19 CNS): > 100 µM | TGI (SNB-19 CNS): > 100 µM | GI50 (SF-295 CNS): > 90 µM | TGI (SF-295 CNS): > 100 µM
